For test [1], the target named is [Pyruvate dehydrogenase (acetyl-transferring)] kinase isozyme 1, mitochondrial (Homo sapiens, UniProt Q15118). As to the kind of experiment: Selectivity interaction (ActivX KiNativ screen (kinase selectivity in THP-1 cell lysates)) EUB0000639a PDK1. Type of test: subcellular. The note with it: lysate.
Test [2] addresses T1, Mitogen-activated protein kinase kinase kinase 2 (Homo sapiens) (UniProt Q9Y2U5).
T1 sequence (whole entry): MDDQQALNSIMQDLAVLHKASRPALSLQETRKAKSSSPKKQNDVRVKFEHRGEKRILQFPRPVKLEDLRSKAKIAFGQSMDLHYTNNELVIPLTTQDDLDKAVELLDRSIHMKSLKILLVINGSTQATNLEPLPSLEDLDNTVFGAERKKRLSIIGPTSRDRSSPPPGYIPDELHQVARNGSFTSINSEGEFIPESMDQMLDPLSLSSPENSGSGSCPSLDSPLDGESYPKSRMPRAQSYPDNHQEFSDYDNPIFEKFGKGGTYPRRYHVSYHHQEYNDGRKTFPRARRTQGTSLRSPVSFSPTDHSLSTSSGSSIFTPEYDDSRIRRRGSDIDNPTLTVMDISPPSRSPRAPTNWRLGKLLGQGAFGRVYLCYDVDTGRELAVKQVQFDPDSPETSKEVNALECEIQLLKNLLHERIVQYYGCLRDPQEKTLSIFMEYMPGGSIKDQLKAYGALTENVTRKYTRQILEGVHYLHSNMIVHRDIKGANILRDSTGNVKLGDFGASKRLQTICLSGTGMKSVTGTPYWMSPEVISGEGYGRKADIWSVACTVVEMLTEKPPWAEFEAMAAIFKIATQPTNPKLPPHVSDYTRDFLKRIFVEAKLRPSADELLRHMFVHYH
As to the kind of experiment: Selectivity interaction (KinomeScan (DiscoverX)) EUB0000618a MAP3K2. The note with it: at 10 µM.

Test [3] deals with T2, Serine/threonine-protein kinase NLK (Homo sapiens) (UniProt Q9UBE8).
T2 sequence (whole entry): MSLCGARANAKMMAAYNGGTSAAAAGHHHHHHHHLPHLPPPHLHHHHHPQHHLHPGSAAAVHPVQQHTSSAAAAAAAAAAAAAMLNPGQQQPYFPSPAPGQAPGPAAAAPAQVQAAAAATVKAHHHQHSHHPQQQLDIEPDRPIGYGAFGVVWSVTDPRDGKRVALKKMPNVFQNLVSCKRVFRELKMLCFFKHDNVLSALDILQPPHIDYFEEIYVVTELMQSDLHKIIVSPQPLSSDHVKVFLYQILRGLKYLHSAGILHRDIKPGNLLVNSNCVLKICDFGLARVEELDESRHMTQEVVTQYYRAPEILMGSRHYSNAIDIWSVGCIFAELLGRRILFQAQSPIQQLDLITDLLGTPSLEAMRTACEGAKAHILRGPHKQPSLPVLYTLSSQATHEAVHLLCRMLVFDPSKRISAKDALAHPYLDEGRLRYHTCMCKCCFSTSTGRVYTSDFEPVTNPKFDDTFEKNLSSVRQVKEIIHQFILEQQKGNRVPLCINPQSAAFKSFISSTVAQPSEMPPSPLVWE
As to the kind of experiment: Selectivity interaction (KinomeScan (DiscoverX)) EUB0000618a NLK. The note with it: at 10 µM.

The target of test [4] is Ephrin type-A receptor 4 (Homo sapiens, UniProt P54764). As to the kind of experiment: Selectivity interaction (KinomeScan (DiscoverX)) EUB0000618a EPHA4. The note with it: at 10 µM.
Ephrin type-A receptor 4, sequence (P54764 whole entry): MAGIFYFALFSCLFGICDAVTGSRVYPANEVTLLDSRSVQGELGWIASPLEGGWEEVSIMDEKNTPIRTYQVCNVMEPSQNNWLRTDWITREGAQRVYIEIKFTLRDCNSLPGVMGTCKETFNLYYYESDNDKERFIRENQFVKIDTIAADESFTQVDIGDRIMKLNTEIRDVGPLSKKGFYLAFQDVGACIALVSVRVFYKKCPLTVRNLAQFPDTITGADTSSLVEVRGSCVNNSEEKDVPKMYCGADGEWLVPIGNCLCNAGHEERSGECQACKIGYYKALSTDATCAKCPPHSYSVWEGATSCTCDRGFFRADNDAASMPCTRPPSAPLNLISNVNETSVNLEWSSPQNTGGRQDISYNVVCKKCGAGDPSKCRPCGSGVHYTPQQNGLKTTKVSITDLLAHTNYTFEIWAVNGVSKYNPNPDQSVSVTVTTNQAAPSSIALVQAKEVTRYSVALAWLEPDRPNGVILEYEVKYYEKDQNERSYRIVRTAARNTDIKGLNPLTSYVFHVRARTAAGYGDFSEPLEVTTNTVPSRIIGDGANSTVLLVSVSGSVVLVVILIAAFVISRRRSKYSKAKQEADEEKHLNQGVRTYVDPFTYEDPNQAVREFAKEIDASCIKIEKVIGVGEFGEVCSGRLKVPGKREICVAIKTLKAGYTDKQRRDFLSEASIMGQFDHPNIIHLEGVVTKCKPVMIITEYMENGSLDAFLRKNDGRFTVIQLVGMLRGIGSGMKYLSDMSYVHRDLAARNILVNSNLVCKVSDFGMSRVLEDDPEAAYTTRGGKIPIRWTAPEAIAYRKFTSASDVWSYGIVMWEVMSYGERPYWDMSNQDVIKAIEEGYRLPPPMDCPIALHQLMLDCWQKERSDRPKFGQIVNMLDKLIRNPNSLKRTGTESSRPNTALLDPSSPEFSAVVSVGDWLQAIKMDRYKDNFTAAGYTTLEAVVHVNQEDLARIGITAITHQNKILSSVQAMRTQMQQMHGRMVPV
Test [5] concerns the target Fibroblast growth factor receptor 4 (Homo sapiens, UniProt P22455). The experiment in a line: Selectivity interaction (KinomeScan (DiscoverX)) EUB0000092b FGFR4. The note with it: at 10 µM.
The test system of test [6] is Epidermal growth factor receptor (Homo sapiens), P00533 [UNDEFINED MUTATION]. The experiment in a line: Selectivity interaction (KinomeScan (DiscoverX)) EUB0001079a EGFR. The note with it: at 1 µM.
Epidermal growth factor receptor (Homo sapiens), P00533 [UNDEFINED MUTATION], sequence (P00533 whole entry, looked up, change not shown): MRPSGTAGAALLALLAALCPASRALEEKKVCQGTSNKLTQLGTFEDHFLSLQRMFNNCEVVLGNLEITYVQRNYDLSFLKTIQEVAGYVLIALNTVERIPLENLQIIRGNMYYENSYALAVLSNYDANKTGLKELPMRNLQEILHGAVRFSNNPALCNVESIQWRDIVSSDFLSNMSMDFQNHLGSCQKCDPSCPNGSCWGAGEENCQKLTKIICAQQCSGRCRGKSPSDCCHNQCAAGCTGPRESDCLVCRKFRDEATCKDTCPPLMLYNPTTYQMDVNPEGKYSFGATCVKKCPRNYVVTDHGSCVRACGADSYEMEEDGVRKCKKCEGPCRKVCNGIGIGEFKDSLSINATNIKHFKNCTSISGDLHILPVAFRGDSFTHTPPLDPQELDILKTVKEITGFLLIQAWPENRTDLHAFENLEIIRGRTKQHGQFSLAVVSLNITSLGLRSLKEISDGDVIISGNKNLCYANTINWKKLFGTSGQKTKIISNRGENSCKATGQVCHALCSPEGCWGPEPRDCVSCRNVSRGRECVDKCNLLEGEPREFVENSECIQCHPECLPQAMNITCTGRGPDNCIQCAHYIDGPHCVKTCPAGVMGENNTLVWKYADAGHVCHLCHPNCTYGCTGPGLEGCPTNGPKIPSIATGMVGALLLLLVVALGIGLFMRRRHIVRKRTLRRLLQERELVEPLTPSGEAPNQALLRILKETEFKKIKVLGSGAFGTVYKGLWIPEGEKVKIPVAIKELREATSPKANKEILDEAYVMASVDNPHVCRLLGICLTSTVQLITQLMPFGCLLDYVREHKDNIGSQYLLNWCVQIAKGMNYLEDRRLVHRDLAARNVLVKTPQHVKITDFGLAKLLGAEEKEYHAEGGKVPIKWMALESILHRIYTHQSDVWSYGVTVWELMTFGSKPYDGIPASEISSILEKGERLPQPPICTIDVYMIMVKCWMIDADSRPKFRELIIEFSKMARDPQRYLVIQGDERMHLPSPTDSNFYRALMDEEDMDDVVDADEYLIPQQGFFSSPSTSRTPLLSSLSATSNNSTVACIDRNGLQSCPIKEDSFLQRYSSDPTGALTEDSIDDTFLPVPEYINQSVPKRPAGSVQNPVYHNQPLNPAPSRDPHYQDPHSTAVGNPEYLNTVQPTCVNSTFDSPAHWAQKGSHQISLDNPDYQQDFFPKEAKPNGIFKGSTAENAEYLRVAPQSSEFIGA
Test [7] addresses Tyrosine-protein kinase Fer (Homo sapiens) (UniProt P16591). As to the kind of experiment: Selectivity interaction (KinomeScan (DiscoverX)) EUB0001079a FER. The note with it: at 1 µM.
In test [8] the target is T3, Ribosomal protein S6 kinase delta-1 (Homo sapiens) (UniProt Q96S38).
T3 sequence (whole entry): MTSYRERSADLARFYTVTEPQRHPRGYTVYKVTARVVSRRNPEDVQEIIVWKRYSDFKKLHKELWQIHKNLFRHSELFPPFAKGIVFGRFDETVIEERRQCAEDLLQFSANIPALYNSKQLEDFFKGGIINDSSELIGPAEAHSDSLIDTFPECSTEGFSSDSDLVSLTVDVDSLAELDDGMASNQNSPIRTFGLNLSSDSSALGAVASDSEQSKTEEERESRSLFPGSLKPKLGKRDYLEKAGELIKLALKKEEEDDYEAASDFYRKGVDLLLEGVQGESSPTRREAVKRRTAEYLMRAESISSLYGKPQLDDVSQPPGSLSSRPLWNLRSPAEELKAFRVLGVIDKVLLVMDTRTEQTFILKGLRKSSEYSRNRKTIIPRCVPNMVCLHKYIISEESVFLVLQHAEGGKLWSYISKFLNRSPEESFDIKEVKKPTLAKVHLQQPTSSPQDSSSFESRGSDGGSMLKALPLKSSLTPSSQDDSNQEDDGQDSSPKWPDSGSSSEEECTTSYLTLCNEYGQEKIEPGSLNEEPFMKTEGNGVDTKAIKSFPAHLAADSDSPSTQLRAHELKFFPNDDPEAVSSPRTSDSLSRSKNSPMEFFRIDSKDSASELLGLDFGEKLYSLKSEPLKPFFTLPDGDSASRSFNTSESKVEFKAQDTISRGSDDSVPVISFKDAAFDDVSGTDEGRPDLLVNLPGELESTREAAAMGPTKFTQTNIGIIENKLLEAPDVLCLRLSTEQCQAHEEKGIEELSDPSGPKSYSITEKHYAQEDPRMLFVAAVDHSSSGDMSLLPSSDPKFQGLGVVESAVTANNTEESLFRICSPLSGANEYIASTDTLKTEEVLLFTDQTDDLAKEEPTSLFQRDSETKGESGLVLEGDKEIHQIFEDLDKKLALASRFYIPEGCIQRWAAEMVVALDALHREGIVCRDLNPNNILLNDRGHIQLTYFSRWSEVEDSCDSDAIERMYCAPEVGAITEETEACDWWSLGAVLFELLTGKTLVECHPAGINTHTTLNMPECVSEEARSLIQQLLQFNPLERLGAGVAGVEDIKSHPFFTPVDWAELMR
The experiment in a line: Selectivity interaction (Kinase panel (KiNativ target engagement assay in Jurkat cells)) EUB0001635a RPS6KC1. Type of test: cell-based. The note with it: Selectivity number of off-targets 0.0, Selectivity number of targets 233.0, Source Knowledge https://www.sciencedirect.com/science/article/pii/S2451945619300674?via%3Dihub, at 1 µM.

Tyrosine-protein kinase Fer (Homo sapiens), sequence (P16591 whole entry, looked up): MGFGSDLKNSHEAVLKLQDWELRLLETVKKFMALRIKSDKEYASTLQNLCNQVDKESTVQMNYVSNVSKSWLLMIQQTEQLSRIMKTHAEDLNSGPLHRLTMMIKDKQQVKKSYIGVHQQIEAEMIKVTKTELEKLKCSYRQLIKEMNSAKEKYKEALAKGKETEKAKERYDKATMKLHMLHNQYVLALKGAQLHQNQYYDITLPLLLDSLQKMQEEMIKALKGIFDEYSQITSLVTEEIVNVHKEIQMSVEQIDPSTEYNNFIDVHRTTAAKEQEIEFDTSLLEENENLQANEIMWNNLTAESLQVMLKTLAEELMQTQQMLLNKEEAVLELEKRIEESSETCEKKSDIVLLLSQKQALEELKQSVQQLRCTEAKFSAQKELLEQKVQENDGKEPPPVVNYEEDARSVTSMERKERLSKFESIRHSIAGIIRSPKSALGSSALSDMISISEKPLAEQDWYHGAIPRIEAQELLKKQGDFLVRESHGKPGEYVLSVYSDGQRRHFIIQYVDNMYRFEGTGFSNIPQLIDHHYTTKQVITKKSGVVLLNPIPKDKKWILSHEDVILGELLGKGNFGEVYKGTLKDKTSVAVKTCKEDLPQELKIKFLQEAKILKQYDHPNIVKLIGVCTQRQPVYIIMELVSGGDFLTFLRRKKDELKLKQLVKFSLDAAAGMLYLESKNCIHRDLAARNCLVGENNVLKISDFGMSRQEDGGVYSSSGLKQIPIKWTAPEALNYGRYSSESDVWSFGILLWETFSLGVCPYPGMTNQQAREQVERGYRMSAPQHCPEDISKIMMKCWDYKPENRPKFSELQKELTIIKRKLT
Fibroblast growth factor receptor 4, sequence (P22455 22-802 limits assumed): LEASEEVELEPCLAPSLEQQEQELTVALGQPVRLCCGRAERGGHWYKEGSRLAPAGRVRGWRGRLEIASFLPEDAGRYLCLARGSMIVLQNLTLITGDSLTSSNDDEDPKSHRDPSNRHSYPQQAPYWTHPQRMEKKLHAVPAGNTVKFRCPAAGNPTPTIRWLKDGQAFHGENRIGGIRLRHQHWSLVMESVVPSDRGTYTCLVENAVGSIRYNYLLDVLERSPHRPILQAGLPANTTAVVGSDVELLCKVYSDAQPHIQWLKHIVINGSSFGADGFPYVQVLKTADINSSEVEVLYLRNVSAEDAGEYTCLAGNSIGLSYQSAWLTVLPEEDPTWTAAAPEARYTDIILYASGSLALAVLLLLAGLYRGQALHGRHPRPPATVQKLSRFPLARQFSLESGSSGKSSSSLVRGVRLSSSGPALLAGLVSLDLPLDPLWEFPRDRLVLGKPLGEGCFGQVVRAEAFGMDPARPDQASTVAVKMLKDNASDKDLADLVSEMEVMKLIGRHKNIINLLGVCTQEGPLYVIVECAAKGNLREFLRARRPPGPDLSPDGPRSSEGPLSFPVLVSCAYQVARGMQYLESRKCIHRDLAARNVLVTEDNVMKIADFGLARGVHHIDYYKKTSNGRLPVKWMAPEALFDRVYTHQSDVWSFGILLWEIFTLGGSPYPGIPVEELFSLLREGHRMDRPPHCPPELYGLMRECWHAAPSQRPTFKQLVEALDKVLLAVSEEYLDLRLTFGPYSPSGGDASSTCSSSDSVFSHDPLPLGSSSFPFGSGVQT

For the molecule `CC[C@@H]1[C@H](F)C(=O)N[C@@H]1COc1nccc2cc(C(N)=O)c(OC)cc12` [ZIMLOVISERTIB], the % of inhibition was 1.3% in test [1] (at 0.01 µM); 12.1% in test [1] (at 0.04 µM); 12.1% in test [1] (at 0.2 µM); 12.5% in test [1] (at 1 µM); 28.1% in test [1] (at 5 µM).

With `O[C@H]1CC[C@H](Nc2ncc3nc(Nc4c(F)cc(F)cc4F)n([C@H]4CCOC4)c3n2)CC1`, the % of control in test [2] is 82%; in test [3], 5.2%; in test [4] it was 93%.

In the case of `CCC(=O)N1CCN(c2ccc(-n3c(=O)ccc4cnc5ccc(-c6cnc7ccccc7c6)cc5c43)cc2C(F)(F)F)CC1`, in test [5], the % of control is 21%.

Turning to `Nc1cnc(N2CCc3cc(S(=O)(=O)Nc4c(F)cc(Cl)cc4F)cc(N4CCCC4=O)c32)nc1` [TP-020n], the figures for the % of control in test [6] and in test [7] were 63% and 100%, respectively.

In the case of `C=CC(=O)Nc1ccc(C(=O)Nc2[nH]nc3c2CN(C(=O)N[C@H](CN(C)C)c2ccccc2)C3(C)C)cc1`, the % of engagement in test [8] was 0.7%.
